Test results: PMC5157691 (Research and reports in biochemistry, 2016)
“Also recorded” adds a separate entry of the source. Like-named read-outs stand apart in the source and are kept apart here. Ends that are not written are not given here.

What was measured:
Mac-1-HEK293 cells [1] = type: cell-based, human
αMI-domain [2] = settings: surface plasmon resonance and biolayer interferometry; cited from earlier work
[3] = tested on: U937, IC-21 and erythrocytes; assay: Binding density of 125I-LL-37-GY on mammalian cells; settings: 5 μg/ml 125I-LL-37-GY; U937, IC-21 and erythrocytes vs tested bacteria
[4] = Binding of 125I-LL-37-GY to latex beads; settings: 10 μg/ml 125I-labeled LL-37-GY; preliminary experiments
Mac-1-HEK293 cells [5] = assay: Adhesion of Mac-1-HEK293 cells to immobilized peptide; type: cell-based, human
wild-type HEK293 cells [6] = assay: Adhesion of wild-type HEK293 cells to immobilized LL-37; type: cell-based, human
U937 cells = assay: Adhesion of U937 monocytic cells to immobilized LL-37; type: cell-based, human; settings: data not shown
IC-21 macrophages [7] = assay: Adhesion of IC-21 macrophages to immobilized peptide; type: cell-based, murine; settings: in words; Fig. 4A shown for K18-37
Salmonella = assay: Binding density of 125I-LL-37-GY on Salmonella; settings: 5 μg/ml 125I-LL-37-GY, 20 min at 22 °C
[8] = tested on: adherent murine peritoneal macrophages; assay: Phagocytosis of E. coli and S. aureus by adherent murine peritoneal macrophages; type: cell-based; settings: LL-37 5 μg/ml, 60 min at 37 °C
wild-type macrophages = assay: Phagocytosis of latex beads by wild-type peritoneal macrophages; type: cell-based, mouse
[9] = tested on: Mac-1-deficient macrophages; assay: Phagocytosis of latex beads by Mac-1-deficient peritoneal macrophages; type: cell-based, mouse; settings: LL-37-coated beads, 30 min at 37 °C
Mac-1-HEK293 cells [10] = assay: Spreading of Mac-1-HEK293 cells on LL-37; type: cell-based, human; settings: slides coated with LL-37, 30 min at 37 °C
wild-type HEK293 cells [11] = assay: Spreading of wild-type HEK293 cells on LL-37; type: cell-based, human; settings: 30 min at 37 °C
macrophages [12] = assay: Phagocytosis of bacteria by macrophages; type: cell-based
[13] = tested on: adherent IC-21 macrophages; settings: LL-37 5 μg/ml, E. coli, 60 min at 37 °C
[14] = tested on: adherent IC-21 macrophages; settings: LL-37 5 μg/ml, S. aureus, 60 min at 37 °C
IC-21 macrophages [15] = settings: LL-37 10 μg/ml, 1 μm beads, beads:cells 10:1, 30 min at 37 °C
[16] = tested on: peritoneal mouse macrophages; settings: LL-37 10 μg/ml, 1 μm beads, beads:cells 10:1, 30 min at 37 °C
human THP-1 cells = settings: LL-37 10 μg/ml, 1 μm beads, beads:cells 10:1, 30 min at 37 °C
mammalian cells = settings: LL-37 10 μg/ml; data not shown
bacteria = settings: bacterial killing in physiologically relevant buffers; cited from earlier work
leukocytes = settings: soluble LL-37; cited from earlier work
monocyte and macrophages = settings: cited from earlier work
neutrophils = settings: cited from earlier work
αMI-domain [17] = settings: cited from earlier work
murine macrophages = settings: opsonization with LL-37; cited from earlier work
primary human monocytes = settings: compared to uncoated beads; cited from earlier work
macrophages [18] = settings: pretreatment of macrophages with LL-37; cited from earlier work
[19] = tested on: human peripheral blood monocytes, neutrophils and T cells; settings: cited from earlier work
Human neutrophils [20] = settings: cited from earlier work
Human neutrophils [21] = settings: cited from earlier work; remark: listed apart in the source
rodents = settings: LL-37 injection; cited from earlier work
Mac-1 = settings: cited from earlier work
wild-type HEK293 cells [22] = assay: Inhibition of wild-type HEK293 cell adhesion to immobilized LL-37; type: cell-based, human; settings: heparin 20 μg/ml, all coating concentrations of LL-37
IC-21 macrophages [23] = assay: Inhibition of IC-21 macrophage adhesion to immobilized K18-37; type: cell-based, murine; settings: K18-37 coating 0.5 μg/ml; heparin 20 μg/ml; mean ± S.E. from 5-6 experiments
Mac-1-HEK293 cells [24] = assay: Inhibition of Mac-1-HEK293 cell adhesion to immobilized LL-37; type: cell-based, human

DIDPKLKWD [reference compound]
inhibition of cell adhesion to fibrinogen (Mac-1-HEK293 cells [1]; control peptide, fibrinogen coated at 2.5 μg/ml, 15 min at 22 °C): inactive

FKRIVQRIKDFLR [FK-13, reference compound]
interaction with αMI-domain (αMI-domain [2]): no interaction

KRIVQRIKDFLRNLVPRTES [K18-37]
IC50 for inhibition of cell adhesion to fibrinogen (Mac-1-HEK293 cells [1]; 3 h): 6 µg/mL

LL-37-GY: LL-37 containing two additional C-terminal residues Gly-Tyr (LLGDFFRKSKEKIGKEFKRIVQRIKDFLRNLVPRTESGY; also: 125I label, place not given here)
binding compared with bacteria [3]: bound significantly less | binding density on beads [4]: 10.6±1.3 fg/μm^2

LLGDFFRKSKEKIGKEFKRIVQRIKDFLRNLVPRTES [LL-37]
adhesion (percent of added cells) (Mac-1-HEK293 cells [5]; LL-37 coating 2 μg/ml, 30 min at 37 °C, calcein fluorescence, n=6): 52 ± 5% | coating concentration for saturable adhesion (Mac-1-HEK293 cells [5]; Mac-1-HEK293, 30 min at 37 °C): 2 µg/mL | adhesion supported by peptide (Mac-1-HEK293 cells [5]; in words): supported strong adhesion; also recorded: supported efficient adhesion | adhesion of wild-type HEK293 cells (wild-type HEK293 cells [6]; LL-37 coating 0-1.0 μg/ml): no adhesion | adhesion of wild-type HEK293 cells (wild-type HEK293 cells [6]; LL-37 coating 1-4 μg/ml): supported adhesion of wild-type HEK293 cells; however, maximal adhesion did not reach the level attained with Mac-1-HEK293 cells | adhesion of U937 cells (U937 cells): adhered to LL-37 in a concentration-dependent manner | adhesion of IC-21 macrophages (IC-21 macrophages [7]): strongly adhered | binding relative to E. coli (fold less) (Salmonella): 1.8 fold | binding to Salmonella relative to mammalian cells (fold higher) (Salmonella): ~ 17 fold | phagocytosis [8]: increased phagocytosis | enhancement of bead uptake (wild-type macrophages; LL-37-coated beads, 30 min at 37 °C, three experiments in triplicate): ~ 5 times | enhancement of bead uptake (wild-type macrophages; LL-37-coated vs untreated beads, abstract): several fold higher than that of untreated beads | enhancement of bead uptake [9]: failed to augment phagocytosis of beads | cell spreading (Mac-1-HEK293 cells [10]): spread in a concentration-dependent manner with the formation of stress fibers | cell spreading (wild-type HEK293 cells [11]; LL-37 coating 2 μg/ml): spread at higher LL-37 concentrations | cell spreading (wild-type HEK293 cells [11]; LL-37 coating 0.2-1.0 μg/ml): remained round | phagocytosis of bacteria (macrophages [12]; Gram-negative and Gram-positive bacteria coated with LL-37, abstract): significantly potentiated their phagocytosis | concentration found to enhance bacterial phagocytosis (macrophages [12]; summary in discussion): 1 to 5 µg/mL | fold increase of phagocytosis [13]: ~ 17 fold | fold increase of phagocytosis [14]: ~10 fold | fold augmentation of bead uptake (IC-21 macrophages [15]): ~ 3.5 fold | fold augmentation of bead uptake [16]: ~4.5 fold | fold augmentation of bead uptake (human THP-1 cells): ~6 fold | calcein leakage relative to background of control untreated cells (mammalian cells): ~ 3 fold | minimal inhibitory concentration (bacteria): 30 to 100 µg/mL | interaction with αMI-domain (αMI-domain [2]): The interaction of the αMI-domain with LL-37 also was recently reported | concentration affecting membrane integrity of leukocytes (leukocytes): > 50 µg/mL | induction of migration (monocyte and macrophages): induces a potent migratory response of Mac-1-expressing monocytes and macrophages; also recorded: induced Mac-1-dependent migration of monocyte and macrophages | neutrophil activation (neutrophils): activates Mac-1 on the surface of neutrophils | αMI-domain binding (αMI-domain [17]): binds the αMI-domain | phagocytosis (murine macrophages): increased phagocytosis by murine macrophages | uptake of LL-37-coated beads (primary human monocytes): increased compared to uncoated beads | bacterial phagocytosis (macrophages [18]): augmented by pretreatment of macrophages | chemotactic effect [19]: chemotactic effect | production of reactive oxygen species (Human neutrophils [20]): increase the production of reactive oxygen species | apoptosis (Human neutrophils [21]): delayed apoptosis | protection from septic death (rodents): protects rodents from septic death

dynorphin A
phagocytosis (Mac-1): enhance phagocytosis | phagocytosis (Mac-1; opsonization, through Mac-1): opsonizes bacteria and promotes phagocytosis through Mac-1

heparin
inhibition of adhesion of wild-type HEK293 cells (wild-type HEK293 cells [22]): strong inhibitor of adhesion | inhibition of adhesion to K18-37 (IC-21 macrophages [23]): 25 ± 13%

B1: NIF: neutrophil inhibitory factor, a specific inhibitor of the αMI-domain-ligand interactions (protein)
chain: NEHNLRCPQNGTEMPGFNDSIRLQFLAMHNGYRSKLALGHISITEESESDDDDDFGFLPDFAPRASKMRYLEYDCEAEKSAYMSARNCSDSSSPPEGYDENKYIFENSNNISEAALKAMISWAKEAFNLNKTKEGEGVLYRSNHDISNFANLAWDAREKFGCAVVNCPLGEIDDETNHDGETYATTIHVVCHYPKINKTEGQPIYKVGTPCDDCSEYTKKADNTTSADPVCIPDDGVCFIGSKADYDSKEFYRFREL
inhibition of adhesion (Mac-1-HEK293 cells [24]; LL-37 coating high (2 μg/ml or ≥2 μg/ml), inhibitor preincubated 15 min at 22 °C): but not high (≥2 μg/ml) concentrations | inhibition of cell adhesion to LL-37 (summary, words) (Mac-1-HEK293 cells [24]; abstract, various Mac-1-expressing cells): partially inhibited
